Assay results as given in patent US7807367B2, “Enzymatic fluorometric assay for cAMP and adenylate cyclase and kits therefor” (Fuso Pharmaceutical Industries, Ltd., priority 1999, dated 2010).

Tested on: ventricular myocytes
Test: Micro cAMP measurement in tissue cultures with enzymatic fluorometric assay
Assay type: cell-based, rat
Settings: isolated ventricular myocytes of 1 day-old rats, 2 μM IBMX, isoproterenol 1 μM final, 5 minutes, one-tenth of eluent, cAMP standard curve
Experimental: Isolated ventricular myocytes were obtained from hearts of 1 day-old rats, grown in primary cultures. There were approximately 5 million viable myocardial cells per heart. After plating at a density of approximately 1 million cells per 100 mm, dish cells were grown in minimum essential medium with Hanks balanced salt solution containing 5% bovine calf serum cells. Simpson et al., Cir. Res., 51, 787 (1982). On day 4, the medium was changed. The cultures contained >90% myocardial cells and cell numbers were constant over time. Simpson et al., Cir. Res., 51, 787 (1982); Rocha-Singh et al., J. Clin. Invest., 88, 204 (1991); and Rocha-Singh et al., J. Clin. Invest., 88, 706 (1991)
Six plates of myocytes were randomized into two groups (n=3 plates/group). […]
A volume of 125 μL of the Detecting Reaction Mixture prepared from (E) (100 mM Tris-HCl, pH 8.0; 3.2 mM EDTA; 0.6 mM NADP^+; 1 U/mL Phosphoglucose isomerase; 0.5 U/mL Glucose-6-phosphate dehydrogenase) was added to each assay tube from Cycling Reactions. After 20 minutes at room temperature, the final concentration of NADPH was measured using a fluorometer (Optical Technology Devises, Inc., NY). The fluorometer was set such that a reading of 10 fluorometric units was equivalent to 1 nmol of NADPH in 900 μL of buffer (50 mM Tris-HCl, pH 8.0). […]

## CC(C)NCC(O)c1ccc(O)c(O)c1 (stereo not shown) [isoproterenol]
  actual value of cAMP: 680 pmol/100 mm plate
